Here are results for 31 compounds from ChEMBL document CHEMBL2384968, “Characterization of maleimide-based glycogen synthase kinase-3 (GSK-3) inhibitors as stimulators of steroidogenesis” (J Med Chem, 2013).

Each structure is given as a SMILES string. In brackets after ≈: the same amount, converted by molar mass.

A short description of series [1]: Cytotoxicity against mouse MA-10 cells at 0.1 to 100 uM after 2 hrs by MTT assay. The note with it: ma-10, 2 h. The format is cell-based. Background: Formazan colour is commonly taken as a measure of viable cells.
Series [2] in a line: Cytotoxicity against mouse MA-10 cells at 100 uM after 2 hrs by MTT assay. Format: cell-based. The conditions noted are these: ma-10, 2 h.
Series [3] concerns the target Glycogen synthase kinase-3 beta (Homo sapiens, UniProt P49841). The series can be described thus: Inhibition of human GSK3beta-mediated YRRAAVPPSPSLSRHSSPHQ(pS)EDEEE phosphorylation.
A short description of series [4]: Kinetic aqueous solubility of the compound by HPLC analysis. The note with it: read-out: Kinetic_solubility. Format: physicochemical.

By IC50 is commonly meant the point on the concentration scale where inhibition reaches its midpoint. A higher IC50 goes with weaker potency.

Chain of Glycogen synthase kinase-3 beta (P49841 whole entry): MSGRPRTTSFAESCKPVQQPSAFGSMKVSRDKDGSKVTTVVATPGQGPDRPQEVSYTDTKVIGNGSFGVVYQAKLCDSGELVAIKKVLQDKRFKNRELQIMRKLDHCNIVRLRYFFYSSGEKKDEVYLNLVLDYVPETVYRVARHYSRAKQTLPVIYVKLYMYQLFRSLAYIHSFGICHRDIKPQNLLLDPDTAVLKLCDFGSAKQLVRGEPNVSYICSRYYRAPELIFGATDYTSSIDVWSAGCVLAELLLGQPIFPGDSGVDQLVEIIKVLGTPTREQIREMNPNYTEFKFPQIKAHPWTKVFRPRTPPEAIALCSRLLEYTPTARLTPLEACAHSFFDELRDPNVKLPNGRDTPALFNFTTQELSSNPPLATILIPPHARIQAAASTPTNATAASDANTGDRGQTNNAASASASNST

In the case of `O=C1NC(=O)C(c2cn3c4c(cc(F)cc24)CNCC3)=C1c1coc2ccccc12`, the Activity entry in series [1] and in series [2] was “Toxic” each time. Also, the IC50 in series [3] turned out to be 3.7 nM.
With `O=C1NC(=O)C(c2cn3c4c(cc(Br)cc24)CNCC3)=C1c1coc2ccccc12`, the Activity result in series [1] and in series [2] was “Toxic” in each case. Besides, in series [3], the IC50 came to 11.5 nM.
`O=C1NC(=O)C(c2cn3c4c(cccc24)CN(C(=O)c2cnccn2)CC3)=C1c1coc2ccccc12`: the Activity result in series [1] and in series [2] was “Toxic” in each case. This compound gave an IC50 in series [3] of 0.2 nM.
Take `O=C1NC(=O)C(c2cn3c4c(cccc24)CN(C(=O)Cc2ccncc2)CC3)=C1c1coc2ccccc12`: the Activity result in series [1] and in series [2] was “Toxic” in each case. Moreover, in series [3], half-maximal inhibition (IC50) required 0.59 nM.
With `O=C1NC(=O)C(c2cn3c4c(cc(F)cc24)CN(C(=O)N2CCCCC2)CC3)=C1c1coc2ccccc12`, in series [1], the Activity entry is “Non-toxic”. Besides, the IC50 in series [3] is 1.9 nM.
On to `O=C1NC(=O)C(c2cn3c4c(cc(F)cc24)CN(C(=O)N2CCC(N4CCCCC4)CC2)CC3)=C1c1coc2ccccc12`, for which the Activity entry in series [1] and in series [2] was “Toxic” each time. In series [3], this compound returned an IC50 of 0.53 nM.
As for `O=C1NC(=O)C(c2cn3c4c(cc(F)cc24)CN(C(=O)N2CCOCC2)CC3)=C1c1coc2ccccc12`, the Activity result in series [1] and in series [2] was “Toxic” in each case. For the same compound, in series [3], the IC50 worked out at 0.013 nM.
For the compound `O=C1NC(=O)C(c2cn(CCO)c3ccc(Br)cc23)=C1c1coc2ccccc12`, the IC50 in series [3] was found to be 21.4 nM. In other words, the double-digit nanomolar range.
`O=C1NC(=O)C(c2cn(CCO)c3ccc(F)cc23)=C1c1coc2ccccc12` returned an IC50 in series [3] of 4.8 nM.
Same read-out and setting: the result for `O=C1NC(=O)C(c2cn(CCCO)c3ccc(F)cc23)=C1c1coc2ccccc12` reads 15 nM.
Regarding `NCCn1cc(C2=C(c3coc4ccccc34)C(=O)NC2=O)c2cc(Br)ccc21`, the solubility kinetic in series [4] was 180 µg/mL (≈ 400 µM). For the same compound, 116 nM corresponded to half-maximal inhibition in series [3] (IC50).
For the compound `NCCn1cc(C2=C(c3coc4ccccc34)C(=O)NC2=O)c2cc(F)ccc21`, the IC50 in series [3] is 41.1 nM.
Same read-out and setting: the result for `CNCCCn1cc(C2=C(c3coc4ccccc34)C(=O)NC2=O)c2cc(Br)ccc21` reads 404 nM; that for `CNCCCn1cc(C2=C(c3coc4ccccc34)C(=O)NC2=O)c2cc(F)ccc21`, 202 nM.
For the compound `COCCn1cc(C2=C(c3coc4ccccc34)C(=O)NC2=O)c2ccccc21`, the Activity result in series [1] and in series [2] was “Non-toxic” in each case. In addition, in series [3], the IC50 was 19.8 nM.
The compound `COCCn1cc(C2=C(c3coc4ccccc34)C(=O)NC2=O)c2cc(F)ccc21` came in with an IC50 in series [3] of 39.7 nM.
Regarding `COCCn1cc(C2=C(c3coc4ccccc34)C(=O)NC2=O)c2cc(Br)ccc21`, the IC50 in series [3] stood at 82.3 nM. This IC50 lies about 2.1-fold higher than the previous one.
As to `COCCn1cc(C2=C(c3coc4ccccc34)C(=O)NC2=O)c2cc(F)c(F)cc21`, the Activity result in series [1] and in series [2] was “Toxic” in each case. In series [3], the IC50 was found to be 35.7 nM.
With `Cn1cc(C2=C(c3coc4ccccc34)C(=O)NC2=O)c2cc(Br)cnc21`, the Activity result in series [1] and in series [2] was “Non-toxic” in each case. This compound also came in with an IC50 in series [3] of 5.3 nM.
Take `COCCn1cc(C2=C(c3coc4ccccc34)C(=O)NC2=O)c2cc(Br)cnc21`: the Activity result in series [1] and in series [2] was “Non-toxic” throughout. Besides, the IC50 in series [3] worked out at 25.2 nM.
In series [3], `Cn1cc(C2=C(c3coc4ccccc34)C(=O)NC2=O)c2cccnc21` registered an IC50 of 17.6 nM.
As for `COCCn1cc(C2=C(c3coc4ccccc34)C(=O)NC2=O)c2cccnc21`, the Activity result in series [1] and in series [2] was “Toxic” each time. Moreover, inhibition in series [3] was half-maximal at 58.2 nM (IC50).
Turning to `COc1cc2c(C3=C(c4coc5ccccc45)C(=O)NC3=O)cn(C)c2cn1`, in series [1], the Activity entry is recorded as “Non-toxic”. Besides, in series [3], the IC50 stood at 65.9 nM.
With `COCCn1cc(C2=C(c3coc4ccccc34)C(=O)NC2=O)c2cc(OC)ncc21`, the midpoint of inhibition in series [3], the IC50, lay at 127 nM. In other words, the sub-micromolar range.
The same measure, in the same setting: the figure for `Cn1cc(C2=C(c3cnc4ccccn34)C(=O)NC2=O)c2cc3c(cc21)OCO3` is 5.3 nM.
On to `Cn1cc(C2=C(c3cnc4ccccn34)C(=O)NC2=O)c2cc(Br)ccc21`, for which the Activity entry in series [1] is on record as “Non-toxic”. The solubility kinetic in series [4] worked out at 35 µg/mL (≈ 83.1 µM). Also, half-maximal inhibition in series [3] (IC50) was put at 0.87 nM.
For the compound `COCCc1cccc2c(C3=C(c4coc5ccccc45)C(=O)NC3=O)cn(C)c12`, the Activity entry in series [1] and in series [2] was “Non-toxic” in each case. Moreover, 11.2 nM corresponded to half-maximal inhibition in series [3] (IC50).
Regarding `Cn1cc(C2=C(c3coc4ccccc34)C(=O)NC2=O)c2cccc(CCOC(C)(C)C)c21`, it took 148 nM to reach half-maximal inhibition in series [3] (IC50).
For `COCCc1cccc2c(C3=C(c4coc5ccccc45)C(=O)NC3=O)cn(CCOC)c12`, the Activity result in series [1] and in series [2] was “Toxic” in each case. Further, inhibition in series [3] was half-maximal at 114 nM (IC50).
Regarding `O=C1NC(=O)C(c2cn3c4c(cccc24)CNCC3)=C1c1coc2ccccc12`, the solubility kinetic in series [4] was determined as 240 µg/mL (≈ 626 µM). In series [3], this compound displayed an IC50 of 4.2 nM.
As to `Cn1cc(C2=C(c3coc4ccccc34)C(=O)NC2=O)c2cc(Br)ccc21`, the Activity result in series [1] and in series [2] was “Non-toxic” throughout.
